What all share (format): physicochemical
Data set [1] in a line: Hygroscopicity (weight gain at relative humidity). The conditions noted are these: for Hygroscopicity (by weight): at 90% relative humidity; for Hygroscopicity (general statement): description, no conditions stated.
A short description of data set [2]: Chemical stability (general statement). Particulars: description, no conditions stated.
Data set [3] can be described thus: Hygroscopicity in relative humidity chambers. The conditions noted are these: after 16 hours. As to the method:
The material was evaluated for hygroscopicity in relative humidity chambers.

Consider `COCC(=O)NC/C=C/c1ccc2ncnc(Nc3ccc(Oc4ccc(C)nc4)c(C)c3)c2c1.O=[N+]([O-])O.O=[N+]([O-])O` [dinitrate, E-2-Methoxy-N-(3-{4-[3-methyl-4-(6-methyl-pyridin-3-yloxy)-phenylamino]-quinazolin-6-yl}-allyl)-acetamide dinitrate], for which the “Hygroscopicity (by weight)” value in data set [1] is given as roughly 7%.

As for `COCC(=O)NC/C=C/c1ccc2ncnc(Nc3ccc(Oc4ccc(C)nc4)c(C)c3)c2c1.O=C(O)/C=C\C(=O)O.O=C(O)/C=C\C(=O)O` [dimaleate, E-2-Methoxy-N-(3-{4-[3-methyl-4-(6-methyl-pyridin-3-yloxy)-phenylamino]-quinazolin-6-yl}-allyl)-acetamide Dimaleate], the Chemical stability result in data set [2] is given as “chemically stable”. In data set [1], the “Hygroscopicity (by weight)” value is on record as 0.6% and the “Hygroscopicity (general statement)” value was “non-hygroscopic”.

Regarding `COCC(=O)NC/C=C/c1ccc2ncnc(Nc3ccc(Oc4ccc(C)nc4)c(C)c3)c2c1.O=P(O)(O)O` [monophosphate, E-2-Methoxy-N-(3{4-[3-methyl-4-(6-methyl-pyridin-3-yloxy)-phenylamino]-quinazolin-6-yl}-allyl)-acetamide Monophosphate], in data set [2], the Chemical stability result is given as “chemically stable”. Further, in data set [1], the “Hygroscopicity (general statement)” value is “non-hygroscopic”.

In the case of `COCC(=O)NC/C=C/c1ccc2ncnc(Nc3ccc(Oc4ccc(C)nc4)c(C)c3)c2c1.Cl` [monohydrochloride, E-2-Methoxy-N-(3{4-[3-methyl-4-(6-methyl-pyridin-3-yloxy)-phenylamino]-quinazolin-6-yl}-allyl)-acetamide Monohydrochloride], the Chemical stability entry in data set [2] is on record as “chemically stable”. Besides, in data set [1], the “Hygroscopicity (general statement)” value is recorded as “non-hygroscopic”.

With `CCS(=O)(=O)O.CCS(=O)(=O)O.COCC(=O)NC/C=C/c1ccc2ncnc(Nc3ccc(Oc4ccc(C)nc4)c(C)c3)c2c1` [diesylate complex, E-2-Methoxy-N-(3-{4-[3-methyl-4-(6-methyl-pyridin-3-yloxy)-phenylamino]-quinazolin-6-yl}-allyl)-acetamide diesylate], the “Hygroscopicity (by weight)” value in data set [1] came out at 45%.

As to `CC1(C)C2CCC1(CS(=O)(=O)O)C(=O)C2.COCC(=O)NC/C=C/c1ccc2ncnc(Nc3ccc(Oc4ccc(C)nc4)c(C)c3)c2c1` [racemic camsylate, racemic E-2-Methoxy-N-(3-{4-[3-methyl-4-(6-methyl-pyridin-3-yloxy)-phenylamino]-quinazolin-6-yl}-allyl)-acetamide camsylate], the “Hygroscopicity (in words)” value in data set [1] (camsylate samples, conditions not stated) is “hygroscopic to the point of deliquescence”.

For `COCC(=O)NC/C=C/c1ccc2ncnc(Nc3ccc(Oc4ccc(C)nc4)c(C)c3)c2c1.O=S(=O)(O)c1ccccc1` [monobesylate, E-2-Methoxy-N-(3-{4-[3-methyl-4-(6-methyl-pyridin-3-yloxy)-phenylamino]-quinazolin-6-yl}-allyl)-acetamide monobesylate], the Water sorption result in data set [3] (75% RH chamber) is reported as “no significant water sorption”. The Weight increase in data set [3] (94% RH chamber) came out at 6.7%. Moreover, the Deliquescence result in data set [3] (100% relative humidity chamber) is “deliquescence was observed”.

The values above are taken from US20050075354A1, “Complexes of E-2-Methoxy-N(3-{4-[3-methyl-4-(6-methyl-pyridin-3-yloxy)-phenylamino]-quinzazolin-6-YL}-allyl)-acetamide, their method of production, and use” (Pfizer Inc, priority 2002, published 2005).
